Results from patent publication US5436221A, “Tumor metastasis inhibiting compounds and methods” (Fuji Photo Film Co., Ltd., priority 1991, dated 1995).
Numbered stars: 1 amine (or outer) side, 2 acyl side, 3 side chain; on linkers, the order of the positions; unused ones are H or OH. Square brackets hold non-standard residues; d marks the D form. Ends that are not written are not given here. Peptide text beside a SMILES is read from it. * marks the point of attachment. X4 = O=C(O)[C@H]1OC(OCCOCCN*)[C@H](O)[C@@H](O)[C@@H]1O; Suc = O=C(CCC(=O)[*:2])[*:1]

Columns and labels:
[1] = tested on: B16-BL6 melanoma cells; assay: Experimental melanoma metastasis in lungs caused by injection of B16-BL6 melanoma cells; assay type: in vivo, C57BL/6 female mice
Protocol: The tumor metastasis inhibitory activities of the peptide derivatives of the present invention were examined as follows.
Each of the following peptide derivatives according to the present invention, Compounds 1 to 13, 15, 19 to 22, 25, 32, 36, 37, 44, 47, 50, 56-1, 56-4, 59, 65, 68, 70, 73, 76, 77, 80, 84, 87, 89, 90, 94, 96, 99, 101, 103,106, 112, 114, 118 and 121 was mixed with B16-BL6 melanoma cells having a potent metastatic tendency in PBS so that 0.2 ml of the mixture contained 3000, 1000 or 500 μg of the peptide derivative and 5×10^6 of B16-BL6 melanoma cells. Then, 0.2 ml of each mixture was intravenously administered to each individual of a group of C57BL/6 female mice consisting of 5 mice. Fourteen days after the administration, the number of melanoma cell colony in lungs was determined and compared with that of the control mice, which were administered with PBS.
(§1) For comparison, the peptide fragments known to have tumor metastasis inhibition activity, Arg--Gly--Asp--Ser (SEQ ID NO:16) (Comparison A), Gly--Arg--Gly--Asp--Ser (SEQ ID NO:17) (Comparison B) and (Arg--Gly--Asp)n(n=5) (SEQ ID NO:18) as well as Reference Polymer A were also administered to the mice in the same manner as above.

[2] = tested on: L5178Y ML25 T-lymphoma cells; assay: Experimental T-lymphoma metastasis in liver and spleen caused by injection of L5178Y ML25 T-lymphoma cells; assay type: in vivo, CDF1 (BALB/c×DBA/2) female mice; conditions: dose 1000 μg mixed with T-lymphoma cells, i.v., 14 days after; for Weight (g): Average ± SD Spleen: PBS control 0.28 ± 0.03, no tumor cells 0.08 ± 0; for Weight (g): Average ± SD Liver: PBS control 4.21 ± 0.49, no tumor cells 1.09 ± 0.11
Protocol: Separately, each of the following peptide derivatives of the present invention, Compound 1, 2, 8, 12, 20, 47, 56, 59, 67, 73 and 85, was mixed with L5178Y ML25 T-lymphoma cells in PBS so that 0.2 ml of the mixture contained 3000 or 1000 μg of the peptide derivative and 4×10^4 of the T-lymphoma cells. Then, 0.2 ml of each mixture was intravenously administered to each individual of a group of CDF1 (BALB/c×DBA/2) female mice consisting of 5 mice. Fourteen days after the administration, the weights of the livers and the spleens of the mice were determined and compared with those of the control mice.
as §1

[3] = Experiment 7, dose 500 μg, PBS control 85 ± 20
[4] = Experiment 4, dose 500 μg, PBS control 116 ± 19
[5] = Experiment 3, dose 500 μg, lung colonies 14 days after, PBS control 145 ± 30
[6] = Experiment 6, dose 500 μg, PBS control 128 ± 24
[7] = Experiment 1, dose 3000 μg mixed with B16-BL6 cells, i.v., lung colonies 14 days after, PBS control 116 ± 27
[8] = Experiment 2, dose 1000 μg mixed with B16-BL6 cells, i.v., lung colonies 14 days after, PBS control 84 ± 11
[9] = Experiment 5, dose 1000 μg, PBS control 91 ± 33

“6-O-Sulfated-Carboxymethyl-N-Acetylchitooligosaccharide Carrying --Asp--Arg--D--Leu--Asp--Ser [Compound 99]” was tested, and the “Number of Colony Average ± SD” value [1, 3] was 3 ± 3.
For “Succinylated Pantaethylenehexaamine (β-Ala--Arg--Leu--Asp--Ser--NH--iPr)6 [Compound 77]”, the “Number of Colony Average ± SD” value [1, 4] was 41 ± 6.
With “Tetrahydrofuran-2,3,4,5-Tetracarboxylic Acid (Arg--Leu--Asp--Ser)4 (RLDS; also: four copies on tetrahydrofuran-2,3,4,5-tetracarboxylic acid core) [Compound 73]” the “Weight (g): Average ± SD Spleen” value [2] was 0.15 ± 0.05 g, the “Weight (g): Average ± SD Liver” value [2] was 1.95 ± 1.00 g and the “Number of Colony Average ± SD” value [1, 4] was 38 ± 7.
For `CC(C)C[C@@H](NC(=O)[C@H](CCCNC(=N)N)NC(=O)[C@H](CO)NC(=O)[C@H](CC(=O)O)NC(=O)[C@@H](CC(C)C)NC(=O)[C@H](CCCNC(=N)N)NC(=O)[C@H](CO)NC(=O)[C@H](CC(=O)O)NC(=O)[C@@H](CC(C)C)NC(=O)[C@H](CCCNC(=N)N)NC(=O)[C@H](CO)NC(=O)[C@H](CC(=O)O)NC(=O)[C@@H](CC(C)C)NC(=O)[C@@H](N)CCCNC(=N)N)C(=O)N[C@@H](CC(=O)O)C(=O)N[C@@H](CO)C(=O)O` [Compound 37] (H-R[dL]DSR[dL]DSR[dL]DSR[dL]DS-OH), the “Number of Colony Average ± SD” value [1, 5] was 27 ± 11.
With `CC(C)C[C@H](NC(=O)[C@H](CCCNC(=N)N)NC(=O)CCC(=O)NCCOCCOC1O[C@H](C(=O)O)[C@@H](O)[C@H](O)[C@H]1O)C(=O)N[C@@H](CC(=O)O)C(=O)N[C@@H](CO)C(=O)O` (some centres unmarked) [Compound 80] ({X4-Suc}-RLDS-OH) the “Number of Colony Average ± SD” value [1, 6] was 36 ± 7.
For “Succinylated Polyallylamine Carrying --(Asp--D--Arg--Phe--Asp--Ser)2 [Compound 103]”, the “Number of Colony Average ± SD” value [1, 3] was 24 ± 8.
`N=C(N)NCCC[C@H](NC(=O)CN)C(=O)NCC(=O)N[C@@H](CC(=O)O)C(=O)N[C@@H](CO)C(=O)O` [Comparison B, Gly--Arg--Gly--Asp--Ser] was tested, and the “Weight (g): Average ± SD Spleen” value [2] was 0.17 ± 0.03 g, the “Weight (g): Average ± SD Liver” value [2] was 2.24 ± 0.46 g and the “Number of Colony Average ± SD” value [1, 7] was 50 ± 10. The “Number of Colony Average ± SD” value [1, 8] was 40 ± 10, the “Number of Colony Average ± SD” value ([1]; Experiment 3, dose 1000 μg, PBS control 145 ± 30) was 89 ± 18 and the “Number of Colony Average ± SD” value ([1]; Experiment 4, dose 1000 μg, PBS control 116 ± 19) was 78 ± 8. For the same compound, the “Number of Colony Average ± SD” value [1, 9] was 49 ± 7, the “Number of Colony Average ± SD” value ([1]; Experiment 6, dose 1000 μg, PBS control 128 ± 24) was 76 ± 6 and the “Number of Colony Average ± SD” value ([1]; Experiment 7, dose 1000 μg, PBS control 85 ± 20) was 50 ± 8.
“Iminodiacetic Acid-Tetracraboxylic Acid Derivative (β-Ala--Arg--Leu--Asp--Ser)4 [Compound 76]” was tested, and the “Number of Colony Average ± SD” value [1, 4] was 48 ± 5.
In the case of “Sulfated CM-Chitin Carrying --Gly--D--Arg--Leu--Asp--Ser [Compound 114]”, the “Number of Colony Average ± SD” value [1, 3] is reported as 21 ± 11.
In the case of GRLDS [Compound 15], the “Number of Colony Average ± SD” value [1, 7] is reported as 43 ± 12.
For RLDSRLDSRLDSRLDS [Compound 36], the “Number of Colony Average ± SD” value [1, 5] was 46 ± 6.
With “Succinylated Chondroitin Sulfate Carrying --D--Arg--Phe--Asp--Ser [Compound 118]” the “Number of Colony Average ± SD” value [1, 3] was 43 ± 8.
For (Arg--Gly--Asp)n(n=5) [Comparison C], the “Number of Colony Average ± SD” value ([1]; Experiment 1, dose 1000 μg mixed with B16-BL6 cells, i.v., lung colonies 14 days after, PBS control 116 ± 27) was 40 ± 15, the “Number of Colony Average ± SD” value [1, 8] was 23 ± 9 and the “Number of Colony Average ± SD” value [1, 5] was 68 ± 9. The “Number of Colony Average ± SD” value [1, 9] was 39 ± 11, the “Number of Colony Average ± SD” value [1, 6] was 57 ± 12 and the “Number of Colony Average ± SD” value [1, 3] was 44 ± 16.
With “6-O-Carboxymethyl-N-Acetylchitohexaose Carrying --Asp--Arg--Leu--Asp--Ser [Compound 94]” the “Number of Colony Average ± SD” value [1, 3] was 14 ± 3.
In the case of `CC(C)C[C@H](NC(=O)[C@@H](N)CCCNC(=N)N)C(=O)N[C@@H](CC(=O)O)C(=O)N[C@@H](CO)C(N)=O` [Compound 9] (H-RLDS-NH2), the “Number of Colony Average ± SD” value [1, 7] is reported as 22 ± 10.
In the case of `CC(=O)N[C@@H](CC(=O)O)C(=O)N[C@H](CCCNC(=N)N)C(=O)N[C@@H](CC(C)C)C(=O)N[C@@H](CC(=O)O)C(=O)N[C@@H](CO)C(=O)O` [Compound 32] (Ac-D[dR]LDS-OH), the “Number of Colony Average ± SD” value [1, 8] is reported as 24 ± 5.
With “R[dL]DR[dL]DR[dL]DR[dL]DR[dL]DR[dL]DR[dL]DR[dL]DR[dL]DR[dL]DR[dL]DR[dL]DR[dL]DR[dL]DR[dL]DR[dL]DR[dL]DR[dL]DR[dL]DR[dL]D [Compound 44]” the “Number of Colony Average ± SD” value [1, 5] was 66 ± 15.
“6-O-Sulfated-Carboxymethyl-N-Acetylchitooligosaccharide Carrying --Asp--Arg--D--Phe--Asp--Ser [Compound 101]” was tested, and the “Number of Colony Average ± SD” value [1, 3] was 13 ± 6.
“Succinyl Derivative of Chondroitin Sulfate Carrying --(Arg--D--Leu--Asp--Ser)2 [Compound 121]” was tested, and the “Number of Colony Average ± SD” value [1, 3] was 45 ± 11.
In the case of `C[C@@H](NC(=O)[C@@H](N)CCCNC(=N)N)C(=O)N[C@@H](CC(=O)O)C(=O)N[C@H](C(N)=O)[C@@H](C)O` [Compound 10] (H-R[dA]DT-NH2), the “Number of Colony Average ± SD” value [1, 7] is reported as 58 ± 15.
“6-O-Carboxymethyl-N-Acetylchitohexaose Carrying --Gly--Arg--Phe--Asp--Ser [Compound 96]” was tested, and the “Number of Colony Average ± SD” value [1, 3] was 9 ± 4.
In the case of “Succinylated CM-Chitin Carrying --Gly--Arg--D--Leu--Asp--Ser [Compound 106]”, the “Number of Colony Average ± SD” value [1, 3] is reported as 1 ± 1.
“Succinylated CM-Chitin Carrying --(Arg--D--Leu--Asp--Ser)2 [Compound 112]” was tested, and the “Number of Colony Average ± SD” value [1, 3] was 14 ± 7.
`N=C(N)NCCC[C@H](N)C(=O)NCC(=O)N[C@@H](CC(=O)O)C(=O)N[C@@H](CO)C(=O)O` [Comparison A, Arg--Gly--Asp--Ser] was tested, and the “Weight (g): Average ± SD Spleen” value [2] was 0.22 ± 0.03 g, the “Weight (g): Average ± SD Liver” value [2] was 3.67 ± 1.04 g and the “Number of Colony Average ± SD” value [1, 7] was 70 ± 8. For the same compound, the “Number of Colony Average ± SD” value [1, 8] was 62 ± 9, the “Number of Colony Average ± SD” value ([1]; Experiment 3, dose 3000 μg, PBS control 145 ± 30) was 92 ± 14 and the “Number of Colony Average ± SD” value ([1]; Experiment 4, dose 3000 μg, PBS control 116 ± 19) was 74 ± 11. For the same compound, the “Number of Colony Average ± SD” value ([1]; Experiment 5, dose 3000 μg, PBS control 91 ± 33) was 60 ± 4, the “Number of Colony Average ± SD” value ([1]; Experiment 6, dose 3000 μg, PBS control 128 ± 24) was 88 ± 20 and the “Number of Colony Average ± SD” value ([1]; Experiment 7, dose 3000 μg, PBS control 85 ± 20) was 51 ± 6.
